For experiment [1], the system named is ENR+CD organoids (ISC to Paneth cell differentiation). Nature of the experiment: Primary screen: CCh-stimulated lysozyme secretion LYZ.S, 2.5-D 384-well ENR+CD organoid differentiation. In kind it is cell-based, mouse. To be noted: primary screen. From the text:
(§1) High-throughput screening.

Experiment [2] shares this test system. The experiment is described as follows: Primary screen: basal (non-stimulated) lysozyme secretion LYZ.NS, 2.5-D 384-well ENR+CD organoid differentiation. In kind it is cell-based, mouse.
Description: as §1

The test system of experiment [3] is ENR+CD organoids. The experiment is described as follows: Primary screen: ATP (CellTiter-Glo 3D, CTG) cell number/viability, 2.5-D 384-well ENR+CD organoids.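 On all read-outs here: compounds given at plating and again on day 3 over a 6-day differentiation from ENR+CV stem-cell-enriched precursors, ATP measured on day 6, plate median as control.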 Particulars: primary screen; for Z.CTG: standard z score.
Where [4] appears, read: dose 0.08 uM, FC relative to plate median.
Where [5] appears, read: dose 0.40 uM, FC relative to plate median.
The mark [6] stands for this setting: dose 2.00 uM, FC relative to plate median.
[7] abbreviates: dose 10.00 uM, FC relative to plate median.
Where [8] appears, read: 1st dose row of the treatment (0.08 uM by row order; dose not reprinted).
Setting [9] is: 2nd dose row of the treatment (0.40 uM by row order; dose not reprinted).
The mark [10] stands for this setting: 3rd dose row of the treatment (2.00 uM by row order; dose not reprinted).
[11] abbreviates: 4th dose row of the treatment (10.00 uM by row order; dose not reprinted).

Consider `Cc1cc(OCCCS(C)(=O)=O)cc(C)c1-c1cccc(COc2ccc3c(c2)OC[C@H]3CC(=O)O)c1` [TAK-875], for which the Dose.FC.LYZ.S in experiment [1] (setting [4]) is reported as 0.212 log2 fold change; in experiment [1] (setting [5]), 0.014 log2 fold change; in experiment [1] (setting [6]), −0.031 log2 fold change; in experiment [1] (setting [7]) it was −0.060 log2 fold change. In addition, the Dose.FC.LYZ.NS in experiment [2] (primary screen, dose 0.08 uM, FC relative to plate median) is given as 0.096 log2 fold change; in experiment [2] (primary screen, dose 0.40 uM, FC relative to plate median), 0.023 log2 fold change; in experiment [2] (primary screen, dose 2.00 uM, FC relative to plate median) it was −0.043 log2 fold change; in experiment [2] (primary screen, dose 10.00 uM, FC relative to plate median) it was −0.138 log2 fold change. Besides, the Z.LYZ.NS in experiment [2] (primary screen, dose 0.08 uM, standard z score) is given as 0.839; in experiment [2] (primary screen, dose 0.40 uM, standard z score), 0.199; in experiment [2] (primary screen, dose 2.00 uM, standard z score) it was −0.378; in experiment [2] (primary screen, dose 10.00 uM, standard z score) it was −1.199. The Dose.FC.CTG in experiment [3] (setting [4]) is listed as 0.239 log2 fold change; in experiment [3] (setting [5]) it was −0.164 log2 fold change; in experiment [3] (setting [6]), −0.157 log2 fold change; in experiment [3] (setting [7]), −0.291 log2 fold change.
Consider `Cc1cc([C@@H](C)Nc2ccccc2C(=O)O)c2nc(N3CCOCC3)cc(=O)n2c1` [AZD6482], for which the Dose.FC.LYZ.S in experiment [1] (dose 0.08 uM) is listed as 0.182 log2 fold change; in experiment [1] (dose 0.40 uM), 0.156 log2 fold change; in experiment [1] (dose 2.00 uM), −0.114 log2 fold change; in experiment [1] (dose 10.00 uM), −0.253 log2 fold change. For the same molecule, the Dose.FC.LYZ.NS in experiment [2] (primary screen, dose 0.08 uM) is listed as 0.108 log2 fold change; in experiment [2] (primary screen, dose 0.40 uM), 0.076 log2 fold change; in experiment [2] (primary screen, dose 2.00 uM), −0.130 log2 fold change; in experiment [2] (primary screen, dose 10.00 uM) it was −0.248 log2 fold change. Besides, the “Z.LYZ.NS (standard z score)” value in experiment [2] (primary screen, dose 0.08 uM) is 0.944; in experiment [2] (primary screen, dose 0.40 uM) it was 0.660; in experiment [2] (primary screen, dose 2.00 uM), −1.129; in experiment [2] (primary screen, dose 10.00 uM) it was −2.160. Besides, the Dose.FC.CTG in experiment [3] (dose 0.08 uM) was 0.240 log2 fold change; in experiment [3] (dose 0.40 uM) it was 0.223 log2 fold change; in experiment [3] (dose 2.00 uM), −0.509 log2 fold change; in experiment [3] (dose 10.00 uM), −1.203 log2 fold change. Moreover, the “Z.CTG (standard z score)” value in experiment [3] (dose 0.08 uM) is 0.572; in experiment [3] (dose 0.40 uM), 0.533; in experiment [3] (dose 2.00 uM) it was −1.215; in experiment [3] (dose 10.00 uM) it was −2.874.
As to `C=CCNC1=C2C[C@@H](C)C[C@H](OC)[C@H](O)[C@@H](C)/C=C(\C)[C@H](OC(N)=O)[C@@H](OC)/C=C\C=C(/C)C(=O)NC(=CC1=O)C2=O` [17-AAG (Tanespimycin)], the “SSMD.LYZ.S_Rep (strictly standardized mean difference)” value in experiment [1] (setting [8]) is listed as −1.387; in experiment [1] (setting [9]), −1.428; in experiment [1] (setting [10]), −1.462; in experiment [1] (setting [11]) it was −1.655. The “Z.LYZ.S (standard z score)” value in experiment [1] (setting [8]) is −1.826; in experiment [1] (setting [9]), −2.199; in experiment [1] (setting [10]), −2.219; in experiment [1] (setting [11]) it was −1.975. In addition, the Dose.FC.LYZ.S was −0.282 log2 fold change in experiment [1] (dose 0.08 uM), −0.340 log2 fold change in experiment [1] (dose 0.40 uM), −0.343 log2 fold change in experiment [1] (dose 2.00 uM) and −0.306 log2 fold change in experiment [1] (dose 10.00 uM). Further, the “SSMD.LYZ.NS_Rep (strictly standardized mean difference)” value is −1.180 in experiment [2] (primary screen, 1st dose row of the treatment (0.08 uM by row order; dose not reprinted)); −1.186 in experiment [2] (primary screen, 2nd dose row of the treatment (0.40 uM by row order; dose not reprinted)); −1.053 in experiment [2] (primary screen, 3rd dose row of the treatment (2.00 uM by row order; dose not reprinted)); −1.183 in experiment [2] (primary screen, 4th dose row of the treatment (10.00 uM by row order; dose not reprinted)). For the same molecule, the Dose.FC.LYZ.NS in experiment [2] (primary screen, dose 0.08 uM) is −0.193 log2 fold change; in experiment [2] (primary screen, dose 0.40 uM), −0.205 log2 fold change; in experiment [2] (primary screen, dose 2.00 uM) it was −0.142 log2 fold change; in experiment [2] (primary screen, dose 10.00 uM), −0.187 log2 fold change. Further, the “Z.LYZ.NS (standard z score)” value in experiment [2] (primary screen, dose 0.08 uM) was −1.682; in experiment [2] (primary screen, dose 0.40 uM), −1.786; in experiment [2] (primary screen, dose 2.00 uM) it was −1.239; in experiment [2] (primary screen, dose 10.00 uM), −1.631. The “SSMD.CTG.Rep (strictly standardized mean difference)” value in experiment [3] (setting [8]) is reported as −0.926; in experiment [3] (setting [9]), −1.023; in experiment [3] (setting [10]), −1.783; in experiment [3] (setting [11]), −1.348. Further, the Dose.FC.CTG in experiment [3] (dose 0.08 uM) is −1.012 log2 fold change; in experiment [3] (dose 0.40 uM), −1.262 log2 fold change; in experiment [3] (dose 2.00 uM) it was −1.459 log2 fold change; in experiment [3] (dose 10.00 uM), −1.446 log2 fold change. Moreover, the “Z.CTG (standard z score)” value in experiment [3] (dose 0.08 uM) is −2.418; in experiment [3] (dose 0.40 uM) it was −3.015; in experiment [3] (dose 2.00 uM) it was −3.486; in experiment [3] (dose 10.00 uM), −3.454.
`OC[C@H]1O[C@@H](c2ccc(Cl)c(Cc3ccc(O[C@H]4CCOC4)cc3)c2)[C@H](O)[C@@H](O)[C@@H]1O` [Empagliflozin (BI 10773)]: the Dose.FC.LYZ.S in experiment [1] (dose 0.08 uM) was −0.051 log2 fold change; in experiment [1] (dose 0.40 uM), −0.055 log2 fold change; in experiment [1] (dose 2.00 uM), −0.103 log2 fold change; in experiment [1] (dose 10.00 uM), −0.022 log2 fold change. Besides, the Dose.FC.LYZ.NS is −0.006 log2 fold change in experiment [2] (primary screen, dose 0.08 uM); −0.034 log2 fold change in experiment [2] (primary screen, dose 0.40 uM); −0.009 log2 fold change in experiment [2] (primary screen, dose 2.00 uM); 0.017 log2 fold change in experiment [2] (primary screen, dose 10.00 uM). For the same molecule, the Z.LYZ.NS is reported as −0.052 in experiment [2] (primary screen, standard z score, dose 0.08 uM); −0.294 in experiment [2] (primary screen, standard z score, dose 0.40 uM); −0.081 in experiment [2] (primary screen, standard z score, dose 2.00 uM); 0.144 in experiment [2] (primary screen, standard z score, dose 10.00 uM). Also, the Dose.FC.CTG in experiment [3] (dose 0.08 uM) was −0.296 log2 fold change; in experiment [3] (dose 0.40 uM), −0.075 log2 fold change; in experiment [3] (dose 2.00 uM), −0.192 log2 fold change; in experiment [3] (dose 10.00 uM) it was −0.134 log2 fold change. Moreover, the Z.CTG in experiment [3] (dose 0.08 uM) is −0.707; in experiment [3] (dose 0.40 uM) it was −0.178; in experiment [3] (dose 2.00 uM) it was −0.458; in experiment [3] (dose 10.00 uM), −0.320.

For the origin of these results see patent publication US20220323406A1, “METHODS AND COMPOSITIONS FOR DIFFERENTIATING STEM CELLS” (Massachusetts Institute of Technology, priority 2019, published 2022).
